PubChem BioAssay AID248 (DTP/NCI, 2004)
Where “and” joins values, the source holds several entries; their conditions need not be identical. Equal entries are not always repeated. Toxic doses and inconclusive results are not listed. No stated cut-off is given here; in the data, active means T/C of 150% or more; inactive means T/C below 125%. Square brackets hold non-standard residues; d marks the D form. Peptide text beside a SMILES is read from it. * marks the point of attachment. ξ: configuration not given here. ξF = NC(Cc1ccccc1)C(=O)O; Boc = CC(C)(C)OC(=O)*; Bn = c1ccc(C*)cc1

System: L1210 leukemia ip in BDF1 mice, survival T/C
Experiment: NCI In Vivo Anticancer Drug Screen. Data for tumor model L1210 Leukemia (intraperitoneal) in B6D2F1 (BDF1) mice
Settings: endpoint: mean survival time, higher = longer survival
How it was run: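 Transplanted-tumor mice were given test agent; controls received vehicle only. Survival readings from the two groups were divided (treated over control).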

[1] = dose: 100.0 mg/kg/injection, schedule: Q01DX009 (ip), vehicle: gum acacia
[2] = dose: 200.0 mg/kg/injection, schedule: Q01DX009 (ip), vehicle: gum acacia
[3] = dose: 400.0 mg/kg/injection, schedule: Q01DX009 (ip), vehicle: gum acacia
[4] = dose: 100.0 mg/kg/injection, schedule: Q01DX009 (ip), vehicle: saline
[5] = dose: 200.0 mg/kg/injection, schedule: Q01DX009 (ip), vehicle: saline
[6] = dose: 400.0 mg/kg/injection, schedule: Q01DX009 (ip), vehicle: saline
[7] = dose: 100.0 mg/kg/injection, schedule: Q04DX003 (ip), vehicle: saline
[8] = dose: 200.0 mg/kg/injection, schedule: Q04DX003 (ip), vehicle: saline
[9] = dose: 400.0 mg/kg/injection, schedule: Q04DX003 (ip), vehicle: saline
[10] = dose: 100.0 mg/kg/injection, schedule: Q01DX001 (ip), vehicle: other
[11] = dose: 200.0 mg/kg/injection, schedule: Q01DX001 (ip), vehicle: other
[12] = dose: 400.0 mg/kg/injection, schedule: Q01DX001 (ip), vehicle: other
[13] = dose: 100.0 mg/kg/injection, schedule: Q01DX009 (ip), vehicle: Klucel (hydroxypropylcellulose) (HPC)
[14] = dose: 200.0 mg/kg/injection, schedule: Q01DX009 (ip), vehicle: Klucel (hydroxypropylcellulose) (HPC)
[15] = dose: 100.0 mg/kg/injection, schedule: Q01DX009 (ip), vehicle: saline with Tween-80
[16] = dose: 200.0 mg/kg/injection, schedule: Q01DX009 (ip), vehicle: saline with Tween-80
[17] = dose: 400.0 mg/kg/injection, schedule: Q01DX009 (ip), vehicle: saline with Tween-80
[18] = dose: 100.0 mg/kg/injection, schedule: Q04DX003 (ip), vehicle: Klucel (hydroxypropylcellulose) (HPC)
[19] = dose: 200.0 mg/kg/injection, schedule: Q04DX003 (ip), vehicle: Klucel (hydroxypropylcellulose) (HPC)
[20] = dose: 400.0 mg/kg/injection, schedule: Q04DX003 (ip), vehicle: Klucel (hydroxypropylcellulose) (HPC)

Measured: T/C

CCN1/C(=C/c2ccc3ccccc3[n+]2CC)C=Cc2ccccc21
inactive: dose: 2.0 mg/kg/injection, schedule: Q01DX001 (ip), vehicle: other 103 % of control | dose: 8.0 mg/kg/injection, schedule: Q01DX001 (ip), vehicle: other 110 % of control | dose: 9.5 mg/kg/injection, schedule: Q01DX001 (ip), vehicle: other 101 % of control

C(=N\Nc1ccccc1)/c1cc2c3c(c1)CCCN3CCC2
inactive: [1] 94 % of control | [2] 91 % of control | [3] 94 % of control

C=C1C(=O)CCC1C(=O)O (stereo unspecified)
inactive: [4] 101 % of control | [5] 110 % of control | [6] 112 % of control

CC(C)(C)OC(=O)NC(CO)C(=O)NC(Cc1ccc(OCc2ccccc2)cc1)C(=O)NCC(=O)O (stereo not drawn) (Boc-Ser-Tyr(Bn)-Gly-OH; configuration not given here)
inactive: dose: 50.0 mg/kg/injection, schedule: Q01DX005 (ip), vehicle: saline 100 % of control | dose: 200.0 mg/kg/injection, schedule: Q01DX005 (ip), vehicle: saline 105 % of control | dose: 400.0 mg/kg/injection, schedule: Q01DX005 (ip), vehicle: saline 91 % of control

C=C(C)CCc1ccccc1
inactive: dose: 50.0 mg/kg/injection, schedule: Q01DX001 (ip), vehicle: saline 102 % of control | dose: 100.0 mg/kg/injection, schedule: Q01DX001 (ip), vehicle: saline 104 % of control | dose: 200.0 mg/kg/injection, schedule: Q01DX001 (ip), vehicle: saline 96 % of control

NC(Cc1ccccc1)C(=O)NCC(=O)O (stereo unspecified) (H-[ξF]-Gly-OH)
inactive: [4] 105 % of control | [7] 98 % of control | [5] 105 % of control | [8] 97 % of control | [6] 102 % of control | [9] 97 % of control

COC(=O)CC1C(C)(C)C(=O)C2CC3=C4CC(=O)OC(c5ccoc5)C4(C)CCC3C1(C)C2=O (stereo unspecified)
inactive: dose: 100.0 mg/kg/injection, schedule: Q01DX001 (ip), vehicle: carboxymethylcellulose (CMC) 97 % of control | dose: 200.0 mg/kg/injection, schedule: Q01DX001 (ip), vehicle: carboxymethylcellulose (CMC) 92 % of control | dose: 400.0 mg/kg/injection, schedule: Q01DX001 (ip), vehicle: carboxymethylcellulose (CMC) 90 % of control

CCOC(=O)C(C)NC(=O)C(C)NC(=O)OCc1ccccc1 (stereo unspecified)
inactive: [1] 101 % of control | dose: 100.0 mg/kg/injection, schedule: Q04DX003 (ip), vehicle: gum acacia 103 % of control | [2] 93 % of control | dose: 200.0 mg/kg/injection, schedule: Q04DX003 (ip), vehicle: gum acacia 101 % of control | [3] 87 % of control | dose: 400.0 mg/kg/injection, schedule: Q04DX003 (ip), vehicle: gum acacia 92 % of control

C/C=C/C(O)(C(=O)OCC)C1CCCCC1 (stereo unspecified)
inactive: [10] 107 % of control | [11] 98 % of control | [12] 102 % of control

Cc1ccc(S(=O)(=O)NC(CCl)=NC2CCCCC2)cc1
inactive: dose: 100.0 mg/kg/injection, schedule: Q04DX002 (ip), vehicle: Klucel (hydroxypropylcellulose) (HPC) 96 % of control | dose: 200.0 mg/kg/injection, schedule: Q04DX002 (ip), vehicle: Klucel (hydroxypropylcellulose) (HPC) 100 % of control | dose: 400.0 mg/kg/injection, schedule: Q04DX002 (ip), vehicle: Klucel (hydroxypropylcellulose) (HPC) 103 % of control

C=Cc1cc(C)cc(OC)c1O
inactive: dose: 50.0 mg/kg/injection, schedule: Q01DX009 (ip), vehicle: Klucel (hydroxypropylcellulose) (HPC) 87 % of control | [13] 89 % of control | [14] 87 % of control

CCCCOCCOCCOCCO
inactive: [4] 98 % of control | [7] 98 % of control | [5] 98 % of control | [8] 98 % of control | [6] 102 % of control | [9] 97 % of control

CCN(C(=O)Nc1ccccc1)c1ccccc1C
inactive: [15] 97 % of control | dose: 100.0 mg/kg/injection, schedule: Q04DX003 (ip), vehicle: saline with Tween-80 111 % of control | [16] 86 % of control | dose: 200.0 mg/kg/injection, schedule: Q04DX003 (ip), vehicle: saline with Tween-80 98 % of control | [17] 92 % of control | dose: 400.0 mg/kg/injection, schedule: Q04DX003 (ip), vehicle: saline with Tween-80 102 % of control

NNC(=O)c1ccc(S(N)(=O)=O)cc1
active: dose: 50.0 mg/kg/injection, schedule: Q01DX009 (ip), vehicle: water 343 % of control | dose: 100.0 mg/kg/injection, schedule: Q01DX009 (ip), vehicle: water 403 % of control | dose: 200.0 mg/kg/injection, schedule: Q01DX009 (ip), vehicle: water 459 % of control
inactive: dose: 12.5 mg/kg/injection, schedule: Q01DX009 (ip), vehicle: water 93 % of control | dose: 25.0 mg/kg/injection, schedule: Q01DX009 (ip), vehicle: water 96 % of control | dose: 59.0 mg/kg/injection, schedule: Q01DX009 (ip), vehicle: other 93 % of control and 103 % of control | dose: 89.0 mg/kg/injection, schedule: Q01DX009 (ip), vehicle: other 97 % of control and 92 % of control | dose: 133.0 mg/kg/injection, schedule: Q01DX009 (ip), vehicle: other 101 % of control and 87 % of control | dose: 200.0 mg/kg/injection, schedule: Q01DX009 (ip), vehicle: other 99 % of control and 90 % of control | dose: 300.0 mg/kg/injection, schedule: Q01DX009 (ip), vehicle: other 94 % of control and 99 % of control

O=C(CCCC(=O)N/N=C/c1ccc(O)c(O)c1)N/N=C\c1ccc(O)c(O)c1
inactive: dose: 50.0 mg/kg/injection, schedule: Q01DX001 (ip), vehicle: other 104 % of control | [10] 93 % of control | [11] 98 % of control | [12] 91 % of control

C1CCC2C(C1)CCC1C3CCCC3OCN21 (stereo unspecified)
inactive: dose: 100.0 mg/kg/injection, schedule: Q04DX002 (ip), vehicle: saline with Tween-80 96 % of control | dose: 200.0 mg/kg/injection, schedule: Q04DX002 (ip), vehicle: saline with Tween-80 96 % of control | dose: 400.0 mg/kg/injection, schedule: Q04DX002 (ip), vehicle: saline with Tween-80 93 % of control

CC(C)(C)C(=O)CC(=O)C(C)(C)C.CC(C)(C)C(=O)CC(=O)C(C)(C)C.[Cu]
inactive: dose: 75.0 mg/kg/injection, schedule: Q01DX001 (ip), vehicle: other 103 % of control | dose: 150.0 mg/kg/injection, schedule: Q01DX001 (ip), vehicle: other 94 % of control

CCC1=C[C@H]2CN(CCc3c([nH]c4ccccc34)[C@@](C(=O)OC)(c3cc4c(cc3OC)N(C)[C@H]3[C@@](O)(C(=O)NC)[C@H](OC(C)=O)[C@]5(CC)C=CCN6CC[C@]43[C@@H]65)C2)C1
inactive: dose: 0.03 mg/kg/injection, schedule: Q01DX009 (ip), vehicle: saline 103 % of control | dose: 0.03 mg/kg/injection, schedule: Q01DX009 (ip), vehicle: water 103 % of control | dose: 0.06 mg/kg/injection, schedule: Q01DX009 (ip), vehicle: saline 114 % of control | dose: 0.06 mg/kg/injection, schedule: Q01DX009 (ip), vehicle: water 115 % of control | dose: 0.12 mg/kg/injection, schedule: Q01DX009 (ip), vehicle: saline 117 % of control | dose: 0.25 mg/kg/injection, schedule: Q01DX009 (ip), vehicle: saline 114 % of control | dose: 1.0 mg/kg/injection, schedule: Q01DX009 (ip), vehicle: saline 120 % of control | dose: 1.0 mg/kg/injection, schedule: Q01DX009 (ip), vehicle: water 118 % of control
active: dose: 0.25 mg/kg/injection, schedule: Q01DX009 (ip), vehicle: water 157 % of control

Nc1ncc([N+](=O)[O-])cn1
inactive: [13] 107 % of control | [18] 103 % of control | [14] 91 % of control | [19] 97 % of control | dose: 400.0 mg/kg/injection, schedule: Q01DX009 (ip), vehicle: Klucel (hydroxypropylcellulose) (HPC) 100 % of control | [20] 94 % of control

CCOc1ccc(NC(=O)OC(C)C)cc1
inactive: [18] 89 % of control | [19] 94 % of control | [20] 103 % of control

O/N=C1/CCCC/C1=C/c1ccc(Cl)cc1
inactive: [15] 104 % of control | [16] 111 % of control | [17] 88 % of control
